Assay results published in publication PMC6005897, “Ligand-Induced Variations in Structural and Dynamical Properties Within an Enzyme Superfamily” (Frontiers in Molecular Biosciences, 2018).
Like-named read-outs stand apart in the source and are kept apart here.

Key:
[1] = molecular target: T1, human RNase 5 (RN5_Human) (Homo sapiens, UniProt P03950); experiment: NMR chemical shift titration, ligand binding to human RNase 5; settings: 298 K, 15 mM sodium acetate pH 5.0, ± standard deviation of the fit
T1 construct: made in house; host or cells: Escherichia coli
T1 sequence (P03950 25-147): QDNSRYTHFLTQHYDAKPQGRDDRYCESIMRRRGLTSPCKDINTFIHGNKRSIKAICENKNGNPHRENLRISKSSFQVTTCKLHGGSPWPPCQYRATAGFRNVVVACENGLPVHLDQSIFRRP
Source text: (§1) The pH was carefully monitored throughout the experiments and readjusted with Tris-base or acetic acid if necessary. Ligands 3′-UMP (Chemical Impex Intl Inc., Wood Dale, IL, USA) and 5′-AMP (BioBasic Inc., Markham, ON Canada) were purchased commercially and dissolved in the same buffer as the protein. ^1H-^15N sensitivity-enhanced HSQC experiments were acquired at 800 MHz (18.8 T) using spectral widths (points) of 2025 (160) and 8000 Hz (1024) in the ω1 and ω2 dimensions, respectively. Titration experiments were performed for each ligand with enzyme:ligand molar ratios up to 1:12 (1:12), 1:18 (1:18), 1:24 (1:18), 1:30 (1:18) and 1:18 (1:30) for the 3′-UMP- (5′-AMP-) bound states of bovine RNase A and human RNases 2, 3, 4, and 5, respectively.
(§2) The equilibrium dissociation constant (Kd) was calculated by plotting weighted average chemical shift differences (Δδobs) as a function of ligand concentration and fitting the data using the following equation: […]
(§3) The Kd was estimated by simultaneously fitting the data of all residues affected by ligand binding (Williamson, [2013]). We note that Δδmax is a fitted parameter and not an experimentally measured one. […] Chemical shift perturbations (Δδobs) were calculated as the difference in the weighted average chemical shift of the ligand-bound (5′-AMP and 3′-UMP) and apo states, as shown below. […]

[2] = molecular target: bovine RNase A (RNA_Bovine); parameters: method as in Gagné et al. ([2012]); settings: ref Gagné et al. ([2012]); cited from earlier work
[3] = molecular target: T2, human RNase 3 (RN3_Human) (Homo sapiens, UniProt P12724); experiment: NMR chemical shift titration, ligand binding to human RNase 3
T2 construct: made in house; host or cells: Escherichia coli
T2 sequence (P12724 28-160): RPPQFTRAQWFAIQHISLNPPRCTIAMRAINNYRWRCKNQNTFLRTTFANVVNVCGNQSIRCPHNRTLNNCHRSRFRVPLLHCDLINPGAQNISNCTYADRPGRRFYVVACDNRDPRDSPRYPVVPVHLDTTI
Source text: as §1
The equilibrium dissociation constant (Kd) was calculated by plotting weighted average chemical shift differences (Δδobs) as a function of ligand concentration and fitting the data using the following equation:
(1) Δδobs=Δδmax/2[P]t([P]t+[L]t/[P]t[P]t+Kd −([P]t+[L]t/[P]t[P]t+Kd)^2−4[L]t/[P]t[P]^2t)
The Kd was estimated by simultaneously fitting the data of all residues affected by ligand binding (Williamson, [2013]). We note that Δδmax is a fitted parameter and not an experimentally measured one. Uncertainties on these values are given by the standard deviations of the fits. Chemical shift perturbations (Δδobs) were calculated as the difference in the weighted average chemical shift of the ligand-bound (5′-AMP and 3′-UMP) and apo states, as shown below.
(2) Δδobs=(ΔδH)^2+(0.2ΔδN)^2/2

[4] = molecular target: T3, human RNase 4 (RN4_Human) (Homo sapiens, UniProt P34096); experiment: NMR chemical shift titration, ligand binding to human RNase 4; settings: 298 K, 15 mM sodium acetate pH 5.0, ± standard deviation of the fit
T3 construct: made in house; host or cells: Escherichia coli
T3 sequence (P34096 29-147): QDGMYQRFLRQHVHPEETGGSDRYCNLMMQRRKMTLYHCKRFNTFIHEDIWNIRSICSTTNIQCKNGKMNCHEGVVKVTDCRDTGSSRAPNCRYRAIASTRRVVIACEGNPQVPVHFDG
Source text: as §1, §2, §3

[5] = molecular target: T4, human RNase 2 (RN2_Human) (Homo sapiens, UniProt P10153); experiment: NMR chemical shift titration, ligand binding to human RNase 2
T4 construct: made in house; host or cells: Escherichia coli
T4 sequence (P10153 28-161): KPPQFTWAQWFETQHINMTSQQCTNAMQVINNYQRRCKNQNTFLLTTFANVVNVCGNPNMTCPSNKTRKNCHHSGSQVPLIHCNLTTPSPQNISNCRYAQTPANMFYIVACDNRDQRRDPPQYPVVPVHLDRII
Source text: as §1, §2, §3

[6] = RN3_Human, 298 K, 15 mM sodium acetate pH 5.0, ± standard deviation of the fit, read-out: Kd

| Compound | Kd [1] | Kd [2] | Kd [3, 6] | Kd [4] | Kd [5] | Kd [3] | Kd ([5]; RN2_Human, 298 K, 15 mM sodium acetate pH 5.0, ± standard deviation of the fit, read-out: Kd) |
| --- | --- | --- | --- | --- | --- | --- | --- |
| O=c1ccn([C@@H]2O[C@H](CO)[C@@H](OP(=O)(O)O)[C@H]2O)c(=O)[nH]1 [3′-UMP] | 1940 µM | 9.7 ± 0.9 µM | 460 ± 100 µM | 10300 µM | 456 ± 10.6 µM | – | – |
| Nc1ncnc2c1ncn2[C@@H]1O[C@H](COP(=O)(O)O)[C@@H](O)[C@H]1O [5′-AMP] | – | 124 ± 1 µM | – | – | – | 300 ± 45 µM | 540 ± 31.4 µM |
| dATATA | – | – | 302 ± 31 µM | 72.9 ± 9 µM | – | – | – |
